In patent US12338220B2, “Antiviral pyrazolopiridinone compounds” (Novartis AG, priority 2019, dated 2025):
Where two headings read alike, the source gives them in different places.

Legend:
[1] = target: CMV-polymerase (Human cytomegalovirus (strain AD169) (HHV-5) (Human herpesvirus 5), UniProt P08546); assay: biochemical
[2] = test system: CMV; assay: microbe, parasite or virus in culture; type: cell-based; details: Human betaherpesvirus 5, 72 h, read-out: CMV-Luc Cellular EC50, NN-NHDF cells, MOI 1, 72 hrs
[3] = CMV-polymerase Biochemical IC50
[4] = read-out: CMV-polymerase Biochemical IC50

| SMILES | IC50 [1, 3] | EC50 [2] | IC50 [1, 4] |
| --- | --- | --- | --- |
| Cn1nc(C(=O)NCc2ccc(C#N)cc2)c2c1C(=O)N(CC1(S(=O)(=O)C3(C)COC3)CC1)CC2 [Example 172, N-(4-Cyanobenzyl)-1-methyl-6-((1-((3-methyloxetan-3-yl)sulfonyl)cyclopropyl)methyl)-7-oxo-4,5,6,7-tetrahydro-1H-pyrazolo[3,4-c]pyridine-3-carboxamide] | 5 nM | 69 nM | – |
| Cn1nc(C(=O)NCc2ccc(C#N)cc2)c2c1C(=O)N(CC1(S(=O)(=O)C3(COCCN)CC3)CC1)CC2 [Example 96, 6-((1-((1-((2-aminoethoxy)methyl)cyclopropyl)sulfonyl)cyclopropyl)methyl)-N-(4-cyanobenzyl)-1-methyl-7-oxo-4,5,6,7-tetrahydro-1H-pyrazolo[3,4-c]pyridine-3-carboxamide] | – | 26 nM | 1 nM |
| COC(=O)NCC(C)(C)S(=O)(=O)C1(CN2CCc3c(C(=O)NCc4ccc(C#N)cc4)nn(C)c3C2=O)CC1 [Example 73, Methyl (2-((1-((3-((4-cyanobenzyl)carbamoyl)-1-methyl-7-oxo-1,4,5,7-tetrahydro-6H-pyrazolo[3,4-c]pyridin-6-yl)methyl)cyclopropyl)sulfonyl)-2-methylpropyl)carbamate] | – | 53 nM | 2 nM |
| C[C@@H](N)C(=O)NCC(C)(C)S(=O)(=O)C1(CN2CCc3c(C(=O)NCc4ccc(C#N)cc4)nn(C)c3C2=O)CC1 [Example 75, (R)-6-((1-((1-(2-Aminopropanamido)-2-methylpropan-2-yl)sulfonyl)cyclopropyl)methyl)-N-(4-cyanobenzyl)-1-methyl-7-oxo-4,5,6,7-tetrahydro-1H-pyrazolo[3,4-c]pyridine-3-carboxamide] | – | 47 nM | 7 nM |
| Cn1nc(C(=O)NCc2ccc(C#N)cc2)c2c1C(=O)N(CC1(S(=O)(=O)Nc3cc(C4CC4)on3)CC1)CC2 [Example 167, N-(4-Cyanobenzyl)-6-((1-(N-(5-cyclopropylisoxazol-3-yl)sulfamoyl)cyclopropyl)methyl)-1-methyl-7-oxo-4,5,6,7-tetrahydro-1H-pyrazolo[3,4-c]pyridine-3-carboxamide] | – | 517 nM | 4 nM |
| Cn1nc(C(=O)NCc2ccc(C#N)cc2)c2c1C(=O)N(CC1(S(=O)(=O)NC(C)(C)CO)CC1)CC2 [Example 149, N-(4-Cyanobenzyl)-6-((1-(N-(1-hydroxy-2-methylpropan-2-yl)sulfamoyl)cyclopropyl)methyl)-1-methyl-7-oxo-4,5,6,7-tetrahydro-1H-pyrazolo[3,4-c]pyridine-3-carboxamide] | – | 166 nM | 12 nM |
| Cn1nc(C(=O)NCc2ccc(Cl)cc2)c2c1C(=O)N(CC1(S(=O)(=O)NC(C)(C)CO)CC1)CC2 [Example 148, N-(4-Chlorobenzyl)-6-((1-(N-(1-hydroxy-2-methylpropan-2-yl)sulfamoyl)cyclopropyl)methyl)-1-methyl-7-oxo-4,5,6,7-tetrahydro-1H-pyrazolo[3,4-c]pyridine-3-carboxamide] | – | 139 nM | 15 nM |
| Cn1nc(C(=O)NCc2ccc(C#N)cc2)c2c1C(=O)N(CC1(S(=O)(=O)C(C)(C)COC(F)(F)CO)CC1)CC2 [Example 84, N-(4-cyanobenzyl)-6-((1-((1-(1,1-difluoro-2-hydroxyethoxy)-2-methylpropan-2-yl)sulfonyl)cyclopropyl)methyl)-1-methyl-7-oxo-4,5,6,7-tetrahydro-1H-pyrazolo[3,4-c]pyridine-3-carboxamide] | 4 nM | 51 nM | – |
| CNCCOCC(C)(C)S(=O)(=O)C1(CN2CCc3c(C(=O)NCc4ccc(C#N)cc4)nn(C)c3C2=O)CC1 [Example 101, N-(4-Cyanobenzyl)-1-methyl-6-((1-((2-methyl-1-(2-(methylamino)ethoxy)propan-2-yl)sulfonyl)cyclopropyl)methyl)-7-oxo-4,5,6,7-tetrahydro-1H-pyrazolo[3,4-c]pyridine-3-carboxamide] | 1 nM | 9 nM | – |
| Cn1nc(C(=O)NCc2ccc(C#N)cc2)c2c1C(=O)N(CC1(S(=O)(=O)N3CC[C@@H](O)C3)CC1)CC2 [Example 126, (R)-N-(4-Cyanobenzyl)-6-((1-((3-hydroxypyrrolidin-1-yl)sulfonyl)cyclopropyl)methyl)-1-methyl-7-oxo-4,5,6,7-tetrahydro-1H-pyrazolo[3,4-c]pyridine-3-carboxamide] | – | 118 nM | 4 nM |
| Cn1nc(C(=O)NCc2ccc(Cl)cc2)c2c1C(=O)N(CC1(S(=O)(=O)Nc3ccccn3)CC1)CC2 [Example 158, N-(4-Chlorobenzyl)-1-methyl-7-oxo-6-((1-(N-(pyridin-2-yl)sulfamoyl)cyclopropyl)methyl)-4,5,6,7-tetrahydro-1H-pyrazolo[3,4-c]pyridine-3-carboxamide] | – | 37 nM | 3 nM |
| Cn1nc(-c2cc(Cc3ccc(C#N)cc3)on2)c2c1C(=O)N(CC1(S(=O)(=O)C3CC3)CC1)CC2 [Example 34, 4-((3-(6-((1-(Cyclopropylsulfonyl)cyclopropyl)methyl)-1-methyl-7-oxo-4,5,6,7-tetrahydro-1H-pyrazolo[3,4-c]pyridin-3-yl)isoxazol-5-yl)methyl)benzonitrile] | 1 nM | 10 nM | – |
| Cn1nc(C(=O)NCc2ccc(C#N)cc2)c2c1C(=O)N(CC1(S(=O)(=O)C3(CCO)CC3)CC1)CC2 [Example 117, N-(4-Cyanobenzyl)-6-((1-((1-(2-hydroxyethyl)cyclopropyl)sulfonyl)cyclopropyl)methyl)-1-methyl-7-oxo-4,5,6,7-tetrahydro-1H-pyrazolo[3,4-c]pyridine-3-carboxamide] | – | 35 nM | 4 nM |
| CN(Cc1ccc(C#N)cc1)C(=O)c1nn(C)c2c1CCN(CC1(S(=O)(=O)C3CC3)CC1)C2=O [Example 6, N-(4-Cyanobenzyl)-6-((1-(cyclopropylsulfonyl)cyclopropyl)methyl)-N,1-dimethyl-7-oxo-4,5,6,7-tetrahydro-1H-pyrazolo[3,4-c]pyridine-3-carboxamide] | – | 770 nM | 30 nM |
| Cn1nc(C(=O)NCc2ccc(C#N)cc2)c2c1C(=O)N(CC1(S(=O)(=O)C(C)(C)CN3CC(F)C3)CC1)CC2 [Example 60, N-(4-Cyanobenzyl)-6-((1-((1-(3-fluoroazetidin-1-yl)-2-methylpropan-2-yl)sulfonyl)cyclopropyl)methyl)-1-methyl-7-oxo-4,5,6,7-tetrahydro-1H-pyrazolo[3,4-c]pyridine-3-carboxamide] | 2 nM | 62 nM | – |
| Cn1nc(C(=O)NCc2ccc(C#N)cc2)c2c1C(=O)N(CC1(S(=O)(=O)C(C)(C)CN3CC4CC3CO4)CC1)CC2 (stereo not drawn) [Example 64, 6-((1-((1-(2-Oxa-5-azabicyclo[2.2.1]heptan-5-yl)-2-methylpropan-2-yl)sulfonyl)cyclopropyl)methyl)-N-(4-cyanobenzyl)-1-methyl-7-oxo-4,5,6,7-tetrahydro-1H-pyrazolo[3,4-c]pyridine-3-carboxamide] | – | 106 nM | 4 nM |
| O=C(NCc1ccc(Cl)cc1)c1nn(CCO)c2c1CCN(CC1(S(=O)(=O)C3CC3)CC1)C2=O [Example 218, N-(4-Chlorobenzyl)-6-((1-(cyclopropylsulfonyl)cyclopropyl)methyl)-1-(2-hydroxyethyl)-7-oxo-4,5,6,7-tetrahydro-1H-pyrazolo[3,4-c]pyridine-3-carboxamide] | – | 42 nM | 6 nM |
| Cn1nc(C(=O)NCc2ccc(C#N)cc2)c2c1C(=O)N(CC1(S(=O)(=O)C(C)(C)COC3CNC3)CC1)CC2 [Example 102, 6-((1-((1-(Azetidin-3-yloxy)-2-methylpropan-2-yl)sulfonyl)cyclopropyl)methyl)-N-(4-cyanobenzyl)-1-methyl-7-oxo-4,5,6,7-tetrahydro-1H-pyrazolo[3,4-c]pyridine-3-carboxamide] | 5 nM | 26 nM | – |
| Cc1cccc(NS(=O)(=O)C2(CN3CCc4c(C(=O)NCc5ccc(C#N)cc5)nn(C)c4C3=O)CC2)n1 [Example 157, N-(4-Cyanobenzyl)-1-methyl-6-((1-(N-(6-methylpyridin-2-yl)sulfamoyl)cyclopropyl)methyl)-7-oxo-4,5,6,7-tetrahydro-1H-pyrazolo[3,4-c]pyridine-3-carboxamide] | – | 58 nM | 2 nM |
| CC1(S(=O)(=O)C2(CN3CCc4c(C(=O)NCc5ccc(C#N)cc5)nn(CCCO)c4C3=O)CC2)CC1 [Example 237, N-(4-Cyanobenzyl)-1-(3-hydroxypropyl)-6-((1-((1-methylcyclopropyl)sulfonyl)cyclopropyl)methyl)-7-oxo-4,5,6,7-tetrahydro-1H-pyrazolo[3,4-c]pyridine-3-carboxamide] | – | 38 nM | 2 nM |
| Cn1nc(C(=O)NCc2ccc(F)cc2)c2c1C(=O)N(CC1(S(=O)(=O)C3CC3)CC1)CC2 [Example 5, 6-((1-(Cyclopropylsulfonyl)cyclopropyl)methyl)-N-(4-fluorobenzyl)-1-methyl-7-oxo-4,5,6,7-tetrahydro-1H-pyrazolo[3,4-c]pyridine-3-carboxamide] | – | 284 nM | 30 nM |
| Cn1nc(C(=O)NCc2ccc(C#N)cc2)c2c1C(=O)N(CC1(S(=O)(=O)NCCN)CC1)CC2 [Example 135, 6-((1-(N-(2-Aminoethyl)sulfamoyl)cyclopropyl)methyl)-N-(4-cyanobenzyl)-1-methyl-7-oxo-4,5,6,7-tetrahydro-1H-pyrazolo[3,4-c]pyridine-3-carboxamide] | – | 536 nM | 62 nM |
| Cn1nc(C(=O)NCc2ccc(Cl)cc2)c2c1C(=O)N(CC1(S(=O)(=O)C3(C(O)CN)CC3)CC1)CC2 (stereo not drawn) [Example 209, 6-((1-((1-(2-Amino-1-hydroxyethyl)cyclopropyl)sulfonyl)cyclopropyl)methyl)-N-(4-chlorobenzyl)-1-methyl-7-oxo-4,5,6,7-tetrahydro-1H-pyrazolo[3,4-c]pyridine-3-carboxamide] | – | 10 nM | 1 nM |
| Cn1nc(C(=O)NCc2ccc(C#N)cc2)c2c1C(=O)N(CC1(S(=O)(=O)C(C)(C)C#N)CC1)CC2 [Example 59, N-(4-Cyanobenzyl)-6-((1-((2-cyanopropan-2-yl)sulfonyl)cyclopropyl)methyl)-1-methyl-7-oxo-4,5,6,7-tetrahydro-1H-pyrazolo[3,4-c]pyridine-3-carboxamide] | 1 nM | 33 nM | – |
